Common to all, as to type: in vivo
Experiment [1] relates to Monochoria vaginalis. Put plainly: Test Example 2: herbicidal effect test by treatment during growing period in paddy field. Particulars: treatment 7 days after sowing, 120 g/10a, evaluated 14 days after treatment. On the procedure: (§1) This test was performed with two replications per one formulation concentration plot, and 14 days after the formulation treatments, the weed suppression rate (%) was determined according to the following equation (Math. 1). Weed suppression rate (%)=(1−an average dry weight (g) of plants in treated plots/an average dry weight (g) of plants in untreated plots)×100 [Math. 1]
(§2) A Wagner pot having an area of 1/10000 are was filled with paddy field soil and after adding water, a chemical fertilizer (N:P:K=17:17:17) was mixed, followed by puddling. Thereafter, 30 grains of each of Echinochloa crus-galli, broad-leaved weed (Lindernia pyxidaria and Monochoria vaginalis) and Scirpus juncoides seeds were sown to a depth of 0 to 1 cm. Immediately after the sowing, the pot was flooded, and the depth of water was kept at about 3 cm. The pot was subsequently managed in a glass greenhouse. Seven days after sowing, an emulsifiable concentrate prepared according to Formulation Example 5 by using the compound shown in Table 6 below was diluted with water, and a predetermined amount of the water-diluted formulation was added dropwise. The application rate of the active ingredient, by conversion, corresponded to 120 g per 10 are. The test was performed with two replications per one formulation concentration plot, and 14 days after the formulation treatments, the weed suppression rate (%) was determined according to the equation (Math. 1).

For experiment [2], the system named is Lindernia pyxidaria. The description is as above. The following applies: treatment 7 days after sowing, 120 g/10a, evaluated 14 days after treatment. On the procedure:
as §1, §2

The subject of experiment [3] is Scirpus juncoides. The description is as above. Particulars: treatment 7 days after sowing, 120 g/10a, evaluated 14 days after treatment. On the procedure: as §1, §2
The test system of experiment [4] is Echinochloa crus-galli. The experiment is described as above. The following applies: treatment 7 days after sowing, 120 g/10a, evaluated 14 days after treatment. The protocol: as §1, §2
Experiment [5] deals with Monochoria vaginalis. Put plainly: Test Example 1: herbicidal effect test by soil treatment in paddy field. Particulars: 120 g/10a, paddy soil treatment just after sowing, 14 days after treatment. In a few lines: (§3)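 Seeds (30 per species) are sown 0–1 cm deep in puddled, fertilized paddy soil, then flooded to about 3 cm. Water-diluted emulsifiable concentrate is dripped in at once, giving 120 g active ingredient per 10 are. Plants grow 14 days in a glass greenhouse before dry weights are compared with untreated.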

The test system of experiment [6] is Lindernia pyxidaria. The description is as above. Particulars: 120 g/10a, paddy soil treatment just after sowing, 14 days after treatment. In a few lines:
as §3

The subject of experiment [7] is Scirpus juncoides. The description is as above. Particulars: 120 g/10a, paddy soil treatment just after sowing, 14 days after treatment. The method, boiled down:
as §3

The test system of experiment [8] is Echinochloa crus-galli. Described as above. The following applies: 120 g/10a, paddy soil treatment just after sowing, 14 days after treatment. In a few lines:
as §3

A further experiment concerns Chenopodium album. Put plainly: Test Example 4: herbicidal effect test by foliage treatment in upland field. The following applies: upland field foliage treatment 7 days after sowing; 120 g/10a; evaluated 14 days after treatment. On the procedure: as §1
(§4) A pot having a size of 36 cm^2 was filled with field soil (alluvial soil) and after uniformly mixing the soil of the surface layer of 1 cm with 20 grains of each weed seed of crabgrass, Echinochloa crus-galli, Chenopodium album and Amaranthus viridis, the surface layer was pressed lightly. Seven days after the sowing, an emulsifiable concentrate prepared according to Formulation Example 5 by using the compound shown in Table 8 below was diluted with water, and the water-diluted formulation was sprayed on the soil surface at a ratio of 100 liter per 10 are. The application rate of the active ingredient, by conversion, corresponded to 120 g per 10 are. Fourteen days after the formulation treatment, the herbicidal effect was evaluated by the same criteria as in Test Example 1.

For another experiment, the system named is crabgrass. Described as above. The following applies: upland field foliage treatment 7 days after sowing; 120 g/10a; evaluated 14 days after treatment. On the procedure:
as §1, §4

Another experiment deals with Amaranthus viridis. Described as above. The following applies: upland field foliage treatment 7 days after sowing; 120 g/10a; evaluated 14 days after treatment. The protocol: as §1, §4
The subject of experiment [9] is Echinochloa crus-galli. The description is as above. Particulars: upland field foliage treatment 7 days after sowing; 120 g/10a; evaluated 14 days after treatment. The protocol: as §1, §4

For the compound `CC(C)N(C(=O)n1ncn(S(=O)(=O)N(C)C)c1=O)c1ccc(Cl)nc1Cl` [Compound 1-1136], the “weed suppression rate, Monochoria vaginalis” value with Monochoria vaginalis [1] is recorded as 80%; in the experiment on Monochoria vaginalis [5], 90%. Besides, the “weed suppression rate, Lindemia pyxidaria” value with Lindernia pyxidaria [2] and in the experiment on Lindernia pyxidaria [6] was 90% in each case. Besides, the “weed suppression rate, Scirpus juncoides” value in the experiment with Scirpus juncoides [3] and in the experiment on Scirpus juncoides [7] was 90% in each case. For the same compound, the “weed suppression rate, Echinochloa crus-galli” value with Echinochloa crus-galli [4] and in the experiment with Echinochloa crus-galli [8] was 100% throughout. The “herbicidal effect (weed suppression rate), Chenopodium album” value (“herbicidal effect … Chenopodium album” for short) in the experiment on Chenopodium album is on record as 80%. Also, the “herbicidal effect (weed suppression rate), Crabgrass” value (“herbicidal effect … Crabgrass” below) with crabgrass is 90%. For the same compound, in the experiment with Amaranthus viridis, the “herbicidal effect (weed suppression rate), Amaranthus viridis” value (shortened to “herbicidal effect … Amaranthus viridis”) stood at 90%. The “herbicidal effect (weed suppression rate), Echinochloa crus-galli” value (from here on “herbicidal effect … Echinochloa crus-galli”) in the experiment on Echinochloa crus-galli [9] is recorded as 80%.

In the case of `CC(C)N(C(=O)n1ncn(S(=O)(=O)C2CC2)c1=O)c1c(F)cc(F)cc1F` [Compound 1-204], the “weed suppression rate, Monochoria vaginalis” value in the experiment on Monochoria vaginalis [1] was 100%; in the experiment with Monochoria vaginalis [5], 80%. Besides, the “weed suppression rate, Lindemia pyxidaria” value in the experiment on Lindernia pyxidaria [2] was found to be 80%; in the experiment with Lindernia pyxidaria [6], 100%. In addition, the “weed suppression rate, Scirpus juncoides” value in the experiment on Scirpus juncoides [3] and with Scirpus juncoides [7] was 100% each time. Also, the “weed suppression rate, Echinochloa crus-galli” value with Echinochloa crus-galli [4] and in the experiment with Echinochloa crus-galli [8] was 100% throughout. Further, the “herbicidal effect … Chenopodium album” value with Chenopodium album was 60%. Moreover, in the experiment with crabgrass, the “herbicidal effect … Crabgrass” value is recorded as 100%. Further, in the experiment with Amaranthus viridis, the “herbicidal effect … Amaranthus viridis” value was 80%. In addition, the “herbicidal effect … Echinochloa crus-galli” value in the experiment on Echinochloa crus-galli [9] is on record as 100%.

As to `Cc1cc(N(C(=O)n2ncn(S(=O)(=O)C(C)C)c2=O)C(C)C)no1` [Compound 1-99], the “weed suppression rate, Monochoria vaginalis” value in the experiment with Monochoria vaginalis [1] is 80%; with Monochoria vaginalis [5], 90%. Further, the “weed suppression rate, Lindemia pyxidaria” value in the experiment on Lindernia pyxidaria [2] and with Lindernia pyxidaria [6] was 80% each time. Also, the “weed suppression rate, Scirpus juncoides” value in the experiment with Scirpus juncoides [3] was 90%; in the experiment on Scirpus juncoides [7], 50%. Moreover, the “weed suppression rate, Echinochloa crus-galli” value in the experiment with Echinochloa crus-galli [4] is reported as 90%; in the experiment with Echinochloa crus-galli [8] it was 60%. Besides, the “herbicidal effect … Chenopodium album” value in the experiment on Chenopodium album was found to be 80%. For the same compound, the “herbicidal effect … Crabgrass” value with crabgrass is reported as 90%. Further, the “herbicidal effect … Amaranthus viridis” value in the experiment with Amaranthus viridis is recorded as 90%. In the experiment with Echinochloa crus-galli [9], the “herbicidal effect … Echinochloa crus-galli” value is listed as 80%.

As for `CC(C)N(C(=O)n1ncn(S(=O)(=O)N(C)C)c1=O)c1ccc(F)nc1` [Compound 1-1129], the “weed suppression rate, Monochoria vaginalis” value with Monochoria vaginalis [1] and in the experiment with Monochoria vaginalis [5] was 80% each time. The “weed suppression rate, Lindemia pyxidaria” value with Lindernia pyxidaria [2] and with Lindernia pyxidaria [6] was 80% throughout. Also, the “weed suppression rate, Scirpus juncoides” value in the experiment on Scirpus juncoides [3] and in the experiment on Scirpus juncoides [7] was 90% in each case. The “weed suppression rate, Echinochloa crus-galli” value with Echinochloa crus-galli [4] and in the experiment with Echinochloa crus-galli [8] was 90% each time.

For the compound `Cc1cc(N(C(=O)n2ncn(S(=O)(=O)C3CC3)c2=O)C(C)C)no1` [Compound 1-250], the “weed suppression rate, Monochoria vaginalis” value is reported as 90% with Monochoria vaginalis [1] and 80% in the experiment with Monochoria vaginalis [5]. In addition, the “weed suppression rate, Lindemia pyxidaria” value is 90% in the experiment with Lindernia pyxidaria [2] and 80% in the experiment on Lindernia pyxidaria [6]. Moreover, the “weed suppression rate, Scirpus juncoides” value with Scirpus juncoides [3] came to 80%; in the experiment on Scirpus juncoides [7], 90%. For the same compound, the “weed suppression rate, Echinochloa crus-galli” value with Echinochloa crus-galli [4] and in the experiment with Echinochloa crus-galli [8] was 90% in each case.

The values above are taken from patent US11076595B2, “1-(n,n-disubstituted carbamoyl) 4-(substituted sulfonyl)triazolin-5-one derivative, 4-(n,n-disubstituted carbamoyl) 1-(substituted sulfonyl)triazolin-5-one derivative, and herbicide containing said derivative as active ingredient” (HOKKO CHEMICAL INDUSTRY CO., LTD., priority 2017, dated 2021).
